Test results reported in ChEMBL document CHEMBL4823300, “Design, synthesis and anticancer activity of sulfenylated imidazo-fused heterocycles” (Bioorg Med Chem Lett, 2021).
pIC50: −log10 of the molar value. The source made the active and inactive calls. The calls are words filed in the database; no cut-off is given here.

Key:
HepG2 [1] = assay: Anticancer activity against human HepG2 cells assessed as growth inhibition incubated for 48 hrs by MTT assay; format: functional, cell-based; conditions: HepG2, 48 h
MDA-MB-231 = assay: Anticancer activity against human MDA-MB-231 cells assessed as growth inhibition incubated for 48 hrs by MTT assay; format: functional, cell-based; conditions: MDA-MB-231, 48 h
U-87 MG = assay: Anticancer activity against human U-87 MG cells assessed as growth inhibition incubated for 48 hrs by MTT assay; format: functional, cell-based, U-87MG ATCC
HEK293 = assay: Anticancer activity against human HEK293 cells assessed as growth inhibition incubated for 48 hrs by MTT assay; format: cell-based; conditions: HEK293, 48 h
SK-MEL-28 = assay: Anticancer activity against human SK-MEL-28 cells assessed as growth inhibition incubated for 48 hrs by MTT assay; format: functional, cell-based; conditions: SK-MEL-28, 48 h
NIH3T3 = assay: Anticancer activity against mouse NIH3T3 cells assessed as growth inhibition incubated for 48 hrs by MTT assay; format: cell-based; conditions: NIH3T3, 48 h
HeLa = assay: Anticancer activity against human HeLa cells assessed as growth inhibition incubated for 48 hrs by MTT assay; format: functional, cell-based
A549 = assay: Anticancer activity against human A549 cells assessed as growth inhibition incubated for 48 hrs by MTT assay; format: functional, cell-based; conditions: A549, 48 h
DU-145 = assay: Anticancer activity against human DU-145 cells assessed as growth inhibition incubated for 48 hrs by MTT assay; format: functional, cell-based; conditions: DU-145, 48 h
HepG2 [2] = assay: Cell cycle arrest in human HepG2 cells assessed as accumulation at S phase at 10 uM (reference value: 4.66%); format: functional
HepG2 [3] = assay: Induction of apoptosis in human HepG2 cells assessed as decrease in mitochondrial membrane potential at 5 to 10 uM incubated for 48 hrs by JC-1 staining based assay relative to control; format: functional, cell-based; conditions: dose 5-10 µM
HepG2 [4] = assay: Cell cycle arrest in human HepG2 cells assessed as accumulation at G2/M phase at 10 uM (reference value: 3.72%); format: functional
HepG2 [5] = assay: Cell cycle arrest in human HepG2 cells assessed as accumulation at G2/M phase at 5 uM (reference value: 3.72%); format: functional
HepG2 [6] = assay: Induction of apoptosis in human HepG2 cells assessed as necrotic cells at 5 uM incubated for 48 hrs by annexin V-FITC/propidium iodide (AV/PI) dual staining assay (reference value: 1.06%); format: functional
HepG2 [7] = assay: Induction of apoptosis in human HepG2 cells assessed as late apoptotic cells at 5 uM incubated for 48 hrs by annexin V-FITC/propidium iodide (AV/PI) dual staining assay (reference value: 4.07%); format: functional
HepG2 [8] = assay: Cell cycle arrest in human HepG2 cells assessed as accumulation at G0/G1 phase at 5 uM (reference value: 92.33%); format: functional
HepG2 [9] = assay: Cell cycle arrest in human HepG2 cells assessed as accumulation at S phase at 5 uM (reference value: 4.66%); format: functional
HepG2 [10] = assay: Induction of apoptosis in human HepG2 cells assessed as necrotic cells at 10 uM incubated for 48 hrs by annexin V-FITC/propidium iodide (AV/PI) dual staining assay (reference value: 1.06%); format: functional
HepG2 [11] = assay: Induction of apoptosis in human HepG2 cells assessed as early apoptotic cells at 5 uM incubated for 48 hrs by annexin V-FITC/propidium iodide (AV/PI) dual staining assay (reference value: 3.87%); format: functional
HepG2 [12] = assay: Cell cycle arrest in human HepG2 cells assessed as accumulation at G0/G1 phase at 10 uM (reference value: 92.33%); format: functional
HepG2 [13] = assay: Induction of apoptosis in human HepG2 cells assessed as late apoptotic cells at 10 uM incubated for 48 hrs by annexin V-FITC/propidium iodide (AV/PI) dual staining assay (reference value: 4.07%); format: functional
HepG2 [14] = assay: Induction of apoptosis in human HepG2 cells assessed as early apoptotic cells at 10 uM incubated for 48 hrs by annexin V-FITC/propidium iodide (AV/PI) dual staining assay (reference value: 3.87%); format: functional
HepG2 [15] = assay: Cell cycle arrest in human HepG2 cells assessed as accumulation at SubG1 phase at 10 uM (reference value: 7.13%); format: functional
HepG2 [16] = assay: Induction of apoptosis in human HepG2 cells assessed as nuclear condensation at 5 to 10 uM incubated for 48 hrs by Hoechst staining based assay relative to control; format: functional, cell-based; conditions: dose 5-10 µM
HepG2 [17] = assay: Cell cycle arrest in human HepG2 cells assessed as accumulation at SubG1 phase at 5 uM (reference value: 7.13%); format: functional
HepG2 [18] = assay: Induction of apoptosis in human HepG2 cells assessed as live cells at 10 uM incubated for 48 hrs by annexin V-FITC/propidium iodide (AV/PI) dual staining assay (reference value: 91.01%); format: functional
HepG2 [19] = assay: Induction of apoptosis in human HepG2 cells assessed as live cells at 5 uM incubated for 48 hrs by annexin V-FITC/propidium iodide (AV/PI) dual staining assay (reference value: 91.01%); format: functional

Structure (SMILES) | pIC50 (HepG2 [1]) | pIC50 (MDA-MB-231) | pIC50 (U-87 MG) | pIC50 (SK-MEL-28) | pIC50 (HeLa) | pIC50 (A549) | pIC50 (DU-145) | pIC50 (HEK293) | pIC50 (NIH3T3) | further results
COc1cccc(OC)c1-c1nc2ccccn2c1Sc1ccccc1 | 4.71 | 4.12 | < 4.00 | < 4.00 | 4.49 | 4.67 | 4.65 | < 4.00 | < 4.00 | –
Clc1ccc(Sc2c(-c3cccs3)nc3ccccn23)cc1 | 4.23 | 4.14 | < 4.00 | 4.11 | 4.13 | 4.16 | 4.03 | 4.03 | 4.06 | –
Cc1ccc2nc(-c3ccc(Cl)cc3)c(Sc3ccccc3)n2c1 | 4.20 | 4.02 | < 4.00 | 4.09 | 4.10 | 4.15 | 4.02 | < 4.00 | < 4.00 | –
c1ccc(Sc2c(-c3ccccc3)nc3ccc(-c4ccccc4)cn23)cc1 | 4.32 | 4.12 | < 4.00 | < 4.00 | 4.14 | 4.27 | 4.14 | < 4.00 | < 4.00 | –
Cc1ccc(-c2nc3ccccn3c2Sc2ccccc2)cc1 | 4.17 | < 4.00 | < 4.00 | < 4.00 | 4.06 | 4.03 | 4.08 | < 4.00 | < 4.00 | –
c1ccc(Sc2c(-c3cccs3)nc3ccccn23)cc1 | 4.77 | 4.16 | < 4.00 | 4.07 | 4.70 | 4.77 | 4.62 | < 4.00 | < 4.00 | –
c1ccc(Sc2c(-c3ccsc3)nc3ccccn23)cc1 | 4.30 | 4.20 | 4.23 | 4.16 | 4.12 | 4.14 | 4.07 | 4.04 | 4.03 | –
COc1ccc(-c2nc3ccccn3c2Sc2ccccc2)cc1 | 4.27 | < 4.00 | < 4.00 | 4.08 | < 4.00 | 4.23 | 4.11 | < 4.00 | 4.04 | –
Clc1ccc(Sc2c(-c3ccccc3)nc3ccccn23)cc1 | 4.77 | 4.24 | 4.20 | 4.13 | 4.44 | 4.56 | 4.12 | 4.04 | 4.05 | –
N#Cc1ccc(-c2nc3ccccn3c2Sc2ccccc2)cc1 | 4.80 | 4.75 | 4.18 | 4.17 | 4.19 | 4.45 | 4.12 | < 4.00 | < 4.00 | –
Clc1ccc(-c2nc3sc4ccccc4n3c2Sc2ccccc2)cc1 | 4.24 | 4.14 | < 4.00 | < 4.00 | 4.19 | 4.12 | 4.11 | < 4.00 | < 4.00 | –
CCc1ccc(-c2nc3ccccn3c2Sc2ccccc2)cc1 | 4.30 | < 4.00 | 4.21 | < 4.00 | 4.28 | 4.25 | 4.07 | < 4.00 | < 4.00 | –
c1ccc(Sc2c(-c3ccccc3)nc3sc4ccccc4n23)cc1 | 4.65 | 4.26 | 4.20 | 4.20 | 4.47 | 4.55 | 4.35 | < 4.00 | < 4.00 | –

Second part, led by results:

pIC50 (HepG2 [1]) | pIC50 (MDA-MB-231) | pIC50 (U-87 MG) | pIC50 (SK-MEL-28) | pIC50 (HeLa) | pIC50 (A549) | pIC50 (DU-145) | Structure (SMILES) | pIC50 (HEK293) | pIC50 (NIH3T3) | further results
4.88 | 4.14 | 4.11 | 4.21 | 4.15 | 4.63 | 4.17 | CS(=O)(=O)c1ccc(-c2nc3ccccn3c2Sc2ccccc2)cc1 | < 4.00 | < 4.00 | –
5.74 | 5.80 | 5.77 | 5.74 | 5.68 | – | 5.85 | COc1cccc2c1C(=O)c1c(O)c3c(c(O)c1C2=O)C[C@@](O)(C(=O)CO)C[C@@H]3O[C@H]1C[C@H](N)[C@H](O)[C@H](C)O1 [DOXORUBICIN] | – | – | –
5.12 | 4.63 | 4.57 | 4.17 | 4.52 | 4.87 | 4.28 | CSc1ccc(-c2nc3ccccn3c2Sc2ccccc2)cc1 | < 4.00 | < 4.00 | Activity (HepG2 [2]): 1.07%; Activity (HepG2 [3]): Active; Activity (HepG2 [4]): 34.97%; Activity (HepG2 [5]): 10.85%; Activity (HepG2 [6]): 0.28%; Activity (HepG2 [7]): 15.17%; Activity (HepG2 [8]): 83.03%; Activity (HepG2 [9]): 0.56%; Activity (HepG2 [10]): 0.22%; Activity (HepG2 [11]): 18.94%; Activity (HepG2 [12]): 63.48%; Activity (HepG2 [13]): 23.93%; Activity (HepG2 [14]): 27.63%; Activity (HepG2 [15]): 1.57%; Activity (HepG2 [16]): Active; Activity (HepG2 [17]): 11.43%; Activity (HepG2 [18]): 48.22%; Activity (HepG2 [19]): 65.61%
4.80 | 4.25 | < 4.00 | 4.11 | 4.53 | 4.61 | 4.25 | Clc1ccc2nc(-c3ccccc3)c(Sc3ccccc3)n2c1 | < 4.00 | < 4.00 | –
4.87 | 4.62 | 4.25 | 4.17 | 4.46 | 4.71 | 4.68 | CS(=O)(=O)c1ccc(-c2nc3ccccn3c2Sc2cccc3ccccc23)cc1 | 4.08 | 4.06 | –
5.06 | 4.60 | 4.23 | 4.18 | 4.45 | 4.79 | 4.66 | C(=C\c1nc2ccccn2c1Sc1ccccc1)/c1ccccc1 | < 4.00 | < 4.00 | Activity (HepG2 [2]): 0.69%; Activity (HepG2 [3]): Active; Activity (HepG2 [4]): 30.69%; Activity (HepG2 [5]): 9.73%; Activity (HepG2 [6]): 0.34%; Activity (HepG2 [7]): 11.31%; Activity (HepG2 [8]): 86.58%; Activity (HepG2 [9]): 0.52%; Activity (HepG2 [10]): 0.2%; Activity (HepG2 [11]): 16.1%; Activity (HepG2 [12]): 65.4%; Activity (HepG2 [13]): 22.5%; Activity (HepG2 [14]): 25.51%; Activity (HepG2 [15]): 8.65%; Activity (HepG2 [16]): Active; Activity (HepG2 [17]): 7.64%; Activity (HepG2 [18]): 51.78%; Activity (HepG2 [19]): 72.25%
4.86 | 4.61 | 4.52 | 4.14 | 4.21 | 4.66 | 4.51 | Clc1ccc(-c2nc3ccccn3c2Sc2ccccc2)cc1 | < 4.00 | < 4.00 | –
4.84 | 4.42 | 4.09 | 4.02 | 4.19 | 4.62 | 4.24 | Cc1ccc(-c2nc3ccc(C)cn3c2Sc2ccccc2)cc1 | < 4.00 | < 4.00 | –
